Values joined by “and” are separate entries in the source; they are usually repeats but may differ in a detail not shown here. Identical values can stand only once. Inconclusive results and toxic doses are left out.
Tested on: BDF1 mice, P388 leukemia ip, median survival T/C
Assay: NCI In Vivo Anticancer Drug Screen. Data for tumor model P388 Leukemia (intraperitoneal) in B6D2F1 (BDF1) mice
Conditions: endpoint: median survival time, higher = longer survival
Procedure, shortened: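 In tumour-bearing mice, survival after compound treatment is set against the vehicle group and given as a quotient.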

[1] = dose: 100.0 mg/kg/injection, schedule: Q01DX009 (ip), vehicle: saline with Tween-80
[2] = dose: 50.0 mg/kg/injection, schedule: Q01DX009 (ip), vehicle: Klucel (hydroxypropylcellulose) (HPC)
[3] = dose: 25.0 mg/kg/injection, schedule: Q04DX003 (ip), vehicle: water
[4] = dose: 50.0 mg/kg/injection, schedule: Q04DX003 (ip), vehicle: water

With `CC1CC(C)(O)C2C3(C)CCCC2(COC3=O)C12CCC1(CCOC1=O)O2` (centres undefined) the T/C (dose: 2.5 mg/kg/injection, schedule: Q01DX009 (ip), vehicle: Klucel (hydroxypropylcellulose) (HPC)) was 88 % of control, the T/C (dose: 5.0 mg/kg/injection, schedule: Q01DX009 (ip), vehicle: Klucel (hydroxypropylcellulose) (HPC)) was 106 % of control and the T/C (dose: 10.0 mg/kg/injection, schedule: Q01DX009 (ip), vehicle: Klucel (hydroxypropylcellulose) (HPC)) was 95 % of control.

For `O=C1OP2(c3ccccc3)(OC(=O)c3ccccc32)c2ccccc21`, the T/C (dose: 50.0 mg/kg/injection, schedule: Q01DX009 (ip), vehicle: saline with Tween-80) was 91 % of control and the T/C [1] was 96 % of control.

`Cc1cc2cc3c(=O)[nH]c(=O)nc-3n(CC(O)C(O)C(O)COP(=O)(O)O)c2cc1C` (centres undefined) was tested, and the T/C (dose: 66.0 mg/kg/injection, schedule: Q01DX009 (ip), vehicle: saline) was 100 % of control, the T/C (dose: 100.0 mg/kg/injection, schedule: Q01DX009 (ip), vehicle: saline) was 95 % of control and 100 % of control and the T/C (dose: 100.0 mg/kg/injection, schedule: Q04DX003 (ip), vehicle: saline) was 100 % of control. For the same molecule, the T/C (dose: 200.0 mg/kg/injection, schedule: Q04DX003 (ip), vehicle: saline) was 113 % of control and the T/C (dose: 400.0 mg/kg/injection, schedule: Q04DX003 (ip), vehicle: saline) was 100 % of control.

With `O=c1[nH]nc(-c2ccccc2)nc1/C(=N\Nc1ccccc1)c1ccccc1` the T/C (dose: 1.56 mg/kg/injection, schedule: Q01DX009 (ip), vehicle: saline with Tween-80) was 92 % of control, the T/C (dose: 3.12 mg/kg/injection, schedule: Q01DX009 (ip), vehicle: saline with Tween-80) was 107 % of control and the T/C (dose: 6.25 mg/kg/injection, schedule: Q01DX009 (ip), vehicle: saline with Tween-80) was 95 % of control and 98 % of control. For the same molecule, the T/C (dose: 12.5 mg/kg/injection, schedule: Q01DX009 (ip), vehicle: saline with Tween-80) was 101 % of control and the T/C (dose: 25.0 mg/kg/injection, schedule: Q01DX009 (ip), vehicle: saline with Tween-80) was 92 % of control.

`COc1ccc(C(=O)/C=C/c2ccccc2)c(O)c1CC=C(C)C` (tested in a mixture with another compound) was tested, and the T/C (dose: 3.12 mg/kg/injection, schedule: Q01DX009 (ip), vehicle: Klucel (hydroxypropylcellulose) (HPC)) was 90 % of control, the T/C (dose: 6.25 mg/kg/injection, schedule: Q01DX009 (ip), vehicle: Klucel (hydroxypropylcellulose) (HPC)) was 102 % of control and the T/C (dose: 12.5 mg/kg/injection, schedule: Q01DX009 (ip), vehicle: Klucel (hydroxypropylcellulose) (HPC)) was 107 % of control. For the same molecule, the T/C (dose: 25.0 mg/kg/injection, schedule: Q01DX009 (ip), vehicle: Klucel (hydroxypropylcellulose) (HPC)) was 109 % of control, the T/C [2] was 91 % of control and the T/C (dose: 100.0 mg/kg/injection, schedule: Q01DX009 (ip), vehicle: Klucel (hydroxypropylcellulose) (HPC)) was 92 % of control.

In the case of `Cc1cc(C)nc(NNc2nc(C)cc(C)n2)n1`, the T/C [1] is reported as 92 % of control, the T/C (dose: 100.0 mg/kg/injection, schedule: Q04DX003 (ip), vehicle: saline with Tween-80) is reported as 91 % of control and the T/C (dose: 200.0 mg/kg/injection, schedule: Q01DX009 (ip), vehicle: saline with Tween-80) is reported as 103 % of control. For the same molecule, the T/C (dose: 200.0 mg/kg/injection, schedule: Q04DX003 (ip), vehicle: saline with Tween-80) was 95 % of control, the T/C (dose: 400.0 mg/kg/injection, schedule: Q01DX009 (ip), vehicle: saline with Tween-80) was 89 % of control and the T/C (dose: 400.0 mg/kg/injection, schedule: Q04DX003 (ip), vehicle: saline with Tween-80) was 95 % of control.

For `COc1cc2c(cc1OC)C(OC)N(C)c1c-2ccc2cc3c(cc12)OCO3` (centres undefined), the T/C (dose: 1.1 mg/kg/injection, schedule: Q01DX009 (ip), vehicle: water) was 118 % of control, the T/C (dose: 1.4 mg/kg/injection, schedule: Q04DX003 (ip), vehicle: saline with Tween-80) was 122 % of control and the T/C (dose: 1.46 mg/kg/injection, schedule: Q01DX009 (ip), vehicle: saline with Tween-80) was 160 % of control. For the same molecule, the T/C (dose: 2.2 mg/kg/injection, schedule: Q01DX009 (ip), vehicle: saline with Tween-80) was 151 % of control, the T/C (dose: 2.5 mg/kg/injection, schedule: Q01DX009 (ip), vehicle: water) was 181 % of control and the T/C (dose: 3.3 mg/kg/injection, schedule: Q01DX009 (ip), vehicle: saline with Tween-80) was 169 % of control. The T/C (dose: 4.4 mg/kg/injection, schedule: Q01DX009 (ip), vehicle: saline with Tween-80) was 167 % of control, the T/C (dose: 5.0 mg/kg/injection, schedule: Q01DX009 (ip), vehicle: saline with Tween-80) was 176 % of control and the T/C (dose: 5.0 mg/kg/injection, schedule: Q01DX009 (ip), vehicle: water) was 159 % of control and 190 % of control. The T/C (dose: 5.0 mg/kg/injection, schedule: Q04DX003 (ip), vehicle: saline with Tween-80) was 150 % of control, the T/C (dose: 6.6 mg/kg/injection, schedule: Q01DX009 (ip), vehicle: saline with Tween-80) was 216 % of control and the T/C (dose: 10.0 mg/kg/injection, schedule: Q01DX009 (ip), vehicle: saline with Tween-80) was 191 % of control and 218 % of control. For the same molecule, the T/C (dose: 10.0 mg/kg/injection, schedule: Q01DX009 (ip), vehicle: saline) was 170 % of control, the T/C (dose: 10.0 mg/kg/injection, schedule: Q01DX009 (ip), vehicle: water) was 177 % of control and 200 % of control and the T/C (dose: 10.0 mg/kg/injection, schedule: Q04DX003 (ip), vehicle: other) was 163 % of control. For the same molecule, the T/C (dose: 14.6 mg/kg/injection, schedule: Q04DX003 (ip), vehicle: saline with Tween-80) was 168 % of control, the T/C (dose: 15.0 mg/kg/injection, schedule: Q01DX009 (ip), vehicle: saline with Tween-80) was 188 % of control and the T/C (dose: 15.0 mg/kg/injection, schedule: Q04DX003 (ip), vehicle: other) was 200 % of control. The T/C (dose: 20.0 mg/kg/injection, schedule: Q01DX009 (ip), vehicle: saline with Tween-80) was 220 % of control and 165 % of control, the T/C (dose: 20.0 mg/kg/injection, schedule: Q01DX009 (ip), vehicle: saline) was 195 % of control and the T/C (dose: 20.0 mg/kg/injection, schedule: Q01DX009 (ip), vehicle: water) was 195 % of control and 220 % of control. The T/C (dose: 20.0 mg/kg/injection, schedule: Q04DX003 (ip), vehicle: saline) was 165 % of control, the T/C (dose: 22.0 mg/kg/injection, schedule: Q04DX003 (ip), vehicle: saline with Tween-80) was 168 % of control and the T/C (dose: 33.0 mg/kg/injection, schedule: Q04DX003 (ip), vehicle: saline with Tween-80) was 263 % of control. The T/C (dose: 40.0 mg/kg/injection, schedule: Q01DX009 (ip), vehicle: saline with Tween-80) was 160 % of control and 175 % of control, the T/C (dose: 40.0 mg/kg/injection, schedule: Q01DX009 (ip), vehicle: saline) was 195 % of control and the T/C (dose: 40.0 mg/kg/injection, schedule: Q01DX009 (ip), vehicle: water) was 186 % of control and 200 % of control. The T/C (dose: 40.0 mg/kg/injection, schedule: Q04DX003 (ip), vehicle: saline) was 170 % of control, the T/C [2] was 205 % of control and the T/C (dose: 50.0 mg/kg/injection, schedule: Q04DX002 (ip), vehicle: Klucel (hydroxypropylcellulose) (HPC)) was 106 % of control. The T/C (dose: 50.0 mg/kg/injection, schedule: Q04DX003 (ip), vehicle: saline with Tween-80) was 231 % of control, the T/C (dose: 52.0 mg/kg/injection, schedule: Q01DX009 (ip), vehicle: saline with Tween-80) was 181 % of control and the T/C (dose: 80.0 mg/kg/injection, schedule: Q01DX009 (ip), vehicle: saline) was 180 % of control. For the same molecule, the T/C (dose: 80.0 mg/kg/injection, schedule: Q01DX009 (ip), vehicle: water) was 109 % of control, the T/C (dose: 80.0 mg/kg/injection, schedule: Q04DX003 (ip), vehicle: saline) was 180 % of control and the T/C (dose: 100.0 mg/kg/injection, schedule: Q04DX002 (ip), vehicle: Klucel (hydroxypropylcellulose) (HPC)) was 172 % of control. The T/C (dose: 120.0 mg/kg/injection, schedule: Q01DX009 (ip), vehicle: water) was 113 % of control, the T/C (dose: 180.0 mg/kg/injection, schedule: Q01DX009 (ip), vehicle: saline with Tween-80) was 104 % of control and the T/C (dose: 200.0 mg/kg/injection, schedule: Q01DX009 (ip), vehicle: Klucel (hydroxypropylcellulose) (HPC)) was 200 % of control. The T/C (dose: 400.0 mg/kg/injection, schedule: Q04DX002 (ip), vehicle: Klucel (hydroxypropylcellulose) (HPC)) was 190 % of control.

In the case of `Nc1nc(N)c2cc(N3CCCC3c3ccc(Cl)cc3)ccc2n1` (centres undefined), the T/C (dose: 3.12 mg/kg/injection, schedule: Q01DX009 (ip), vehicle: saline) is reported as 109 % of control, the T/C (dose: 12.5 mg/kg/injection, schedule: Q01DX009 (ip), vehicle: saline) is reported as 89 % of control and the T/C (dose: 12.5 mg/kg/injection, schedule: Q04DX003 (ip), vehicle: water) is reported as 92 % of control. The T/C [3] was 111 % of control and the T/C [4] was 115 % of control.

For `O=C(c1ccccc1)N1CC1`, the T/C (dose: 25.0 mg/kg/injection, schedule: Q01DX009 (ip), vehicle: water) was 101 % of control, the T/C [3] was 115 % of control and the T/C [4] was 92 % of control. The T/C (dose: 100.0 mg/kg/injection, schedule: Q04DX003 (ip), vehicle: water) was 100 % of control, the T/C (dose: 200.0 mg/kg/injection, schedule: Q04DX003 (ip), vehicle: water) was 109 % of control and the T/C (dose: 400.0 mg/kg/injection, schedule: Q01DX009 (ip), vehicle: water) was 112 % of control. The T/C (dose: 400.0 mg/kg/injection, schedule: Q04DX003 (ip), vehicle: water) was 115 % of control.
